From patent US5036097A, “Phenylbutyl nitrone compositions and methods for prevention of gastric ulceration” (Oklahoma Medical Research Foundation, priority 1990, dated 1991) come the findings set out here.

Molecules are shown by their SMILES. Entries after “also recorded” stand apart in the source; their conditions may differ.

Test [1] has as its system gastric ulceration. The test can be described thus: NSAID-induced gastric ulceration in rats (surface area of ulceration). The format is in vivo, rat (male Sprague-Dawley). Particulars: 4 h. The procedure: Male Sprague-Dawley rats (Charles River, Wilmington, Mass.) weighing 300-325 g were housed individually in wire bottomed cages to prevent ingestion of hair and feces. […] Piroxicam or aspirin and other NSAIDS were suspended in a vehicle of 1% carboxymethylcellulose, 0.1% Tween 80 and 0.15 M HCl, and administered in a volume of 1 ml on the morning of study by oral gavage using an 18 gauge curved blunt needle (Popper and Sons, New Hyde Park, N.Y.). One ml of vehicle alone was administered for control experiments. HCl was added to the vehicle to insure an acid environment in the stomach in all studies. […] Four hours after the administration of NSAID or vehicle, rats were euthanized with sodium pentobarbital (100 mg/kg IP), and the surface area of ulceration per stomach was quantitated using morphometric techniques. Stomachs were removed, the lumen was exposed by an incision along the radius of greater curvature, and the stomach was washed in phosphate buffered saline. The luminal surface was laid out on a flat surface with gross folds removed by gentle distension. The percentage of surface involved with submucosal hemorrhage was then determined by point counting, as described by Weibel, E. R. Stereological Methods: Practical Methods for Biological Morphometry. […] This was done by tabulation of the percentage of points over ulcerations using a point counting eyepiece graticle (16×16 points in a square format). At the 12X magnification used on the Wild dissecting microscope (Wild-Heerbrugg, Basel, Switzerland), the graticle covered a 1 cm^2 area of the surface. Four to five non-overlapping sampling sites were taken to fully cover the exposed surface. To determine the total luminal surface area, the outline of the outer boundary of the stomach was traced using a transparent acetate sheet, and the area was determined from planimetry. The surface area of ulcerated regions per stomach was then determined by multiplying the surface density of ulceration regions by the luminal surface area of the stomach.
Differences in total luminal surface area in cm^2, surface area of ulcerated regions per stomach and biochemical analyses between each treatment intervention and its corresponding untreated control group are compared using the Mann-Whitney U Test, Dixon, W. J., Massey, F. J., Jr. Introduction to statistical methods, 4th edition. […] In vitro studies are compared using the Student's unpaired T-test, Dixon, W. J., Massey, F. J., Jr. Introduction to statistical methods, 4th edition. […] Values are expressed as mean±SEM. Significance is assumed when P<0.05.
Phenyl N-tert-butyl nitrone is obtained from Aldrich Chemicals, Milwaukee, Wis. All other chemicals and pharmaceuticals are from Sigma Chemical.

Test [2] has as its system Xanthine dehydrogenase (XDH) and oxidase (XO). The test can be described thus: gastric xanthine dehydrogenase and oxidase activity. The format is in vivo, rat. Particulars: whole stomach, piroxicam treated. As for the experimental part: MEASUREMENT OF GASTRIC XANTHINE OXIDASE ACTIVITY. Xanthine dehydrogenase (XDH) and oxidase (XO) activities are measured in whole stomach from piroxicam-treated and vehicle-treated rats, using methods reported by Parks, et. al. […]. 254 (Gastrointest Liver Physiol 17): […]-[…] (1988). The artifactual conversion of XDH to XO is minimized by quickly removing stomachs from rats that were anesthetized with 50 mg/kg sodium pentobarbital and still breathing spontaneously. After gastrectomy, the rats are euthanized by cutting the abdominal aorta. Stomachs are quickly rinsed in an ice cold homogenizing buffer consisting of 50 mM potassium phosphate buffer, pH 7.0, containing 10 mM dithiothreitol (DTT), 1 mM phenylmethylsulfonyl fluoride (PMSF) and 0.1 mM EDTA. The stomach is then immediately immersed in liquid nitrogen and ground to a fine powder under liquid nitrogen using a mortar and pestle. About 0.5 g of frozen powder is added to 5 ml of homogenizing buffer and centrifuged 40,000 g for 30 min. The supernatant is decanted and microfuged for an additional 10 min. […] To increase reaction rates activity was measured at 30 rather than 25° C. […] XO is assayed in the absence in NAD+, while XDH+XO activity is measured in the presence of 500 μM NAD+. […] The extent of XDH conversion (% XO) is calculated from XO activity divided by XDH+XO activity.

For test [3], the system named is mitochondrial respiration. The test can be described thus: mitochondrial respiration (liver mitochondria). The format is biochemical, rat. As for the experimental part:
Studies of Mitochondrial Respiration.
Rat liver mitochondria are prepared using the method of Lai and Clark Methods Enzymol 55:51-60 (1979). The livers are excised rapidly into ice cold isolation medium containing 0.25M sucrose, 10 mM tris(hydroxymethyl)aminomethane (Tris), 0.25% bovine serum albumin (fatty acid free), and 0.5 mM potassium EDTA, pH 7.4. The tissue is minced and rinsed three times in cold isolation medium. The minced tissue is placed in a Dounce homogenizer with 20 ml cold isolation medium, gently homogenized, and diluted with an additional 10 ml of isolation medium. The homogenate is centrifuged at 2,000 g for 3 min., and the resulting supernatant recentrifuged at 12,500 g for 8 min. The crude mitochondrial pellet is suspended in 0.12M mannitol-0.03M sucrose medium containing 3% Ficoll, gently layered onto 20 ml of 6% Ficoll (0.25M mannitol-0.06M sucrose), and centrifuged at 11,500 g for 30 min. The resulting mitochondrial pellet is resuspended in the isolation medium and recentrifuged for 10 min. at 12,500 g. The final pellet is brought to a concentration of 10 to 15 mg of mitochondrial protein per ml with isolation medium. Mitochondrial protein is determined by the Biuret reaction described by Gornall, A. G., et al. Biol Chem 177:751-766 (1949), using bovine serum albumin as a standard. Mitochondrial respiration is measured polarographically in a magnetically stirred chamber at 25° C., using a Clark microelectrode (Diamond Electro-tech, Ann Arbor, Mich.). The incubation medium contains the following (in mM): 5K+, 226 mannitol, 75 sucrose, 5 Tris-phosphate, 10 Tris-Cl, and 0.05 EDTA at pH 7.4. State 4 respiratory rates are determined using both NADH-linked (2.5 mM malate+ 2 mM glutamate) and FADH2 -lined (10 mM succinate) substrates, with 5 mM KCl at pH 7.0. State 3 respiration rates are measured after stimulation with 1.5 mM ADP. Respiratory control ratios are determined as the ratio of State 3 to State 4 respiration after incubation with 0, 50, 100 and 200 μM piroxicam.

The mark [4] stands for this setting: rat liver mitochondria, 0-200 μM piroxicam.

Turning to `CN1C(C(=O)Nc2ccccn2)=C(O)c2ccccc2S1(=O)=O` [piroxicam], the “gastric ulceration, in words” value in test [1] (oral gavage, 23 mg/kg piroxicam, vs vehicle, 23 mg/kg) is recorded as “prominent ulceration along the ridges of gastric rugae; also recorded: consistently produced ulceration; also recorded: profound gastric ulceration”. Also, the “mean ulceration in piroxicam-treated control stomachs” value in test [1] (piroxicam 23 mg/kg p.o., absence of an intervention) stood at 0.215 cm^2. In addition, the “XO as % of total XDH+XO activity” value in test [2] came to 45±3%. Further, the “total XDH+XO activity” value in test [2] (vehicle 31.6±2.45 mU/g) is 30.5±1.6 mU/g. The respiratory control entry in test [3] (FADH2-linked and NADH-linked substrates) is on record as “inhibition of respiratory control”. In test [3] (setting [4]), the “rate of mitochondrial oxygen uptake in the absence of ADP (State 4)” value is listed as “increases the rate of mitochondrial oxygen uptake” and the “stimulation of respiration by ADP (State 3)” value was “lost in the presence of piroxicam”.
